# Data from ChEMBL document CHEMBL5131478, “3,5-Bis(trifluoromethyl)phenylsulfonamides, a novel pancreatic cancer active lead. Investigation of the terminal aromatic moiety” (Bioorg Med Chem Lett, 2022).
# Tested on: MIA PaCa-2
# Assay: Growth inhibition of human MIA PaCa-2 cells incubated for 72 hrs by MTT assay
# Assay type: functional
row,Compound,GI50
1,O=S(=O)(NCCCCCCNCc1ccc(Br)cc1)c1ccc2ccsc2c1,6 µM
2,CN(CCCNS(=O)(=O)c1cc(C(F)(F)F)cc(C(F)(F)F)c1)Cc1ccccc1,33 µM
3,O=S(=O)(NCCCCCCNCc1ccc(Br)cc1)c1c(Cl)cccc1Cl,14.7 µM
4,O=S(=O)(NCCCCNCc1ccc(Br)cc1)c1cc(C(F)(F)F)cc(C(F)(F)F)c1,2.1 µM
5,O=S(=O)(NCCCCCCNCc1ccc(Br)cc1)c1c(Cl)cc(C(F)(F)F)cc1Cl,5.67 µM
6,O=S(=O)(NCCCNCc1ccc(C(F)(F)F)cc1)c1cc(C(F)(F)F)cc(C(F)(F)F)c1,2.5 µM
7,O=S(=O)(NCCCCCCNCc1ccc(Br)cc1)c1ccc2c(c1)OCC2,13 µM

# Further compounds by falling GI50, results first:
row,GI50,Compound
1,13 µM,COc1ccc(S(=O)(=O)NCCCCCCNCc2ccc(Br)cc2)cc1
2,12 µM,O=S(=O)(NCCCCCCNCc1ccc(Br)cc1)c1cc(Cl)cc(Cl)c1
3,11 µM,O=S(=O)(NCCCNCc1ccccc1)c1cc(C(F)(F)F)cc(C(F)(F)F)c1
4,11 µM,O=S(=O)(NCCCNCc1ccccc1Cl)c1cc(C(F)(F)F)cc(C(F)(F)F)c1
5,9.8 µM,O=[N+]([O-])c1ccc(S(=O)(=O)NCCCCCCNCc2ccc(Br)cc2)cc1
6,7.4 µM,O=S(=O)(NCCCNCc1ccc(Cl)c(C(F)(F)F)c1)c1cc(C(F)(F)F)cc(C(F)(F)F)c1
7,5.9 µM,O=S(=O)(NCCCCCCNCc1ccc(Br)cc1)c1ccc(Cl)cc1
8,3.83 µM,O=S(=O)(NCCCCCCNCc1ccc(Br)cc1)c1ccc(C(F)(F)F)cc1
9,3.4 µM,COc1cccc(CNCCCNS(=O)(=O)c2cc(C(F)(F)F)cc(C(F)(F)F)c2)c1
10,3.1 µM,COc1ccccc1CNCCCNS(=O)(=O)c1cc(C(F)(F)F)cc(C(F)(F)F)c1

# Tested on: HT-29
# Assay: Growth inhibition of human HT-29 cells incubated for 72 hrs by MTT assay
# Assay type: functional
row,Compound,GI50
1,CN(CCCNS(=O)(=O)c1cc(C(F)(F)F)cc(C(F)(F)F)c1)Cc1ccccc1,> 50 µM
2,O=S(=O)(NCCCCNCc1ccc(Br)cc1)c1cc(C(F)(F)F)cc(C(F)(F)F)c1,1.6 µM
3,O=S(=O)(NCCCNCc1ccc(C(F)(F)F)cc1)c1cc(C(F)(F)F)cc(C(F)(F)F)c1,2.9 µM

# Further lines, results first:
row,GI50,Compound
1,15 µM,O=S(=O)(NCCCNCc1ccccc1)c1cc(C(F)(F)F)cc(C(F)(F)F)c1
2,20 µM,O=S(=O)(NCCCNCc1ccccc1Cl)c1cc(C(F)(F)F)cc(C(F)(F)F)c1
3,11 µM,O=S(=O)(NCCCNCc1ccc(Cl)c(C(F)(F)F)c1)c1cc(C(F)(F)F)cc(C(F)(F)F)c1
4,10 µM,COc1cccc(CNCCCNS(=O)(=O)c2cc(C(F)(F)F)cc(C(F)(F)F)c2)c1
5,12 µM,COc1ccccc1CNCCCNS(=O)(=O)c1cc(C(F)(F)F)cc(C(F)(F)F)c1

# Tested on: MCF7
# Assay: Growth inhibition of human MCF7 cells incubated for 72 hrs by MTT assay
# Assay type: functional
row,Compound,GI50
1,CN(CCCNS(=O)(=O)c1cc(C(F)(F)F)cc(C(F)(F)F)c1)Cc1ccccc1,16 µM
2,O=S(=O)(NCCCCNCc1ccc(Br)cc1)c1cc(C(F)(F)F)cc(C(F)(F)F)c1,1.5 µM
3,O=S(=O)(NCCCNCc1ccc(C(F)(F)F)cc1)c1cc(C(F)(F)F)cc(C(F)(F)F)c1,1.4 µM

# Now from value to compound:
row,GI50,Compound
1,3 µM,O=S(=O)(NCCCNCc1ccccc1)c1cc(C(F)(F)F)cc(C(F)(F)F)c1
2,8.8 µM,O=S(=O)(NCCCNCc1ccccc1Cl)c1cc(C(F)(F)F)cc(C(F)(F)F)c1
3,3.5 µM,O=S(=O)(NCCCNCc1ccc(Cl)c(C(F)(F)F)c1)c1cc(C(F)(F)F)cc(C(F)(F)F)c1
4,2.4 µM,COc1cccc(CNCCCNS(=O)(=O)c2cc(C(F)(F)F)cc(C(F)(F)F)c2)c1
5,2.6 µM,COc1ccccc1CNCCCNS(=O)(=O)c1cc(C(F)(F)F)cc(C(F)(F)F)c1

# Tested on: A2780
# Assay: Growth inhibition of human A2780 cells incubated for 72 hrs by MTT assay
# Assay type: functional
row,Compound,GI50
1,CN(CCCNS(=O)(=O)c1cc(C(F)(F)F)cc(C(F)(F)F)c1)Cc1ccccc1,28 µM
2,O=S(=O)(NCCCCNCc1ccc(Br)cc1)c1cc(C(F)(F)F)cc(C(F)(F)F)c1,2.1 µM
3,O=S(=O)(NCCCNCc1ccc(C(F)(F)F)cc1)c1cc(C(F)(F)F)cc(C(F)(F)F)c1,2.8 µM

# More lines, now with the values ahead:
row,GI50,Compound
1,4.9 µM,O=S(=O)(NCCCNCc1ccccc1)c1cc(C(F)(F)F)cc(C(F)(F)F)c1
2,9.3 µM,O=S(=O)(NCCCNCc1ccccc1Cl)c1cc(C(F)(F)F)cc(C(F)(F)F)c1
3,5.9 µM,O=S(=O)(NCCCNCc1ccc(Cl)c(C(F)(F)F)c1)c1cc(C(F)(F)F)cc(C(F)(F)F)c1
4,1.6 µM,COc1cccc(CNCCCNS(=O)(=O)c2cc(C(F)(F)F)cc(C(F)(F)F)c2)c1
5,1.5 µM,COc1ccccc1CNCCCNS(=O)(=O)c1cc(C(F)(F)F)cc(C(F)(F)F)c1

# Tested on: BE(2)-C
# Assay: Growth inhibition of human BE2C cells incubated for 72 hrs by MTT assay
# Assay type: functional
row,Compound,GI50
1,O=S(=O)(NCCCNCc1ccccc1)c1cc(C(F)(F)F)cc(C(F)(F)F)c1,12 µM
2,COc1cccc(CNCCCNS(=O)(=O)c2cc(C(F)(F)F)cc(C(F)(F)F)c2)c1,4.5 µM
3,CN(CCCNS(=O)(=O)c1cc(C(F)(F)F)cc(C(F)(F)F)c1)Cc1ccccc1,28 µM
4,O=S(=O)(NCCCNCc1ccccc1Cl)c1cc(C(F)(F)F)cc(C(F)(F)F)c1,15 µM
5,O=S(=O)(NCCCCNCc1ccc(Br)cc1)c1cc(C(F)(F)F)cc(C(F)(F)F)c1,2.2 µM
6,O=S(=O)(NCCCNCc1ccc(Cl)c(C(F)(F)F)c1)c1cc(C(F)(F)F)cc(C(F)(F)F)c1,8.6 µM
7,O=S(=O)(NCCCNCc1ccc(C(F)(F)F)cc1)c1cc(C(F)(F)F)cc(C(F)(F)F)c1,2.7 µM
8,COc1ccccc1CNCCCNS(=O)(=O)c1cc(C(F)(F)F)cc(C(F)(F)F)c1,3.6 µM

# Tested on: not listed separately
# Assay: Growth inhibition of human MCF-10A cells incubated for 72 hrs by MTT assay
# Assay type: toxicity, cell-based
row,Compound,GI50 at 72 h
1,O=S(=O)(NCCCNCc1ccccc1)c1cc(C(F)(F)F)cc(C(F)(F)F)c1,13 µM
2,COc1cccc(CNCCCNS(=O)(=O)c2cc(C(F)(F)F)cc(C(F)(F)F)c2)c1,6.6 µM
3,CN(CCCNS(=O)(=O)c1cc(C(F)(F)F)cc(C(F)(F)F)c1)Cc1ccccc1,26 µM
4,O=S(=O)(NCCCNCc1ccccc1Cl)c1cc(C(F)(F)F)cc(C(F)(F)F)c1,11 µM
5,O=S(=O)(NCCCCNCc1ccc(Br)cc1)c1cc(C(F)(F)F)cc(C(F)(F)F)c1,3.2 µM
6,O=S(=O)(NCCCNCc1ccc(Cl)c(C(F)(F)F)c1)c1cc(C(F)(F)F)cc(C(F)(F)F)c1,7.9 µM
7,O=S(=O)(NCCCNCc1ccc(C(F)(F)F)cc1)c1cc(C(F)(F)F)cc(C(F)(F)F)c1,3.3 µM
8,COc1ccccc1CNCCCNS(=O)(=O)c1cc(C(F)(F)F)cc(C(F)(F)F)c1,5.5 µM

# Tested on: ASPC1
# Assay: Growth inhibition of human ASPC1 cells incubated for 72 hrs by MTT assay
# Assay type: functional
row,Compound,GI50
1,CN(CCCNS(=O)(=O)c1cc(C(F)(F)F)cc(C(F)(F)F)c1)Cc1ccccc1,51 µM
2,O=S(=O)(NCCCCNCc1ccc(Br)cc1)c1cc(C(F)(F)F)cc(C(F)(F)F)c1,2.9 µM
3,O=S(=O)(NCCCNCc1ccc(C(F)(F)F)cc1)c1cc(C(F)(F)F)cc(C(F)(F)F)c1,2 µM

# The remaining lines, values ahead:
row,GI50,Compound
1,13 µM,O=S(=O)(NCCCNCc1ccccc1)c1cc(C(F)(F)F)cc(C(F)(F)F)c1
2,13 µM,O=S(=O)(NCCCNCc1ccccc1Cl)c1cc(C(F)(F)F)cc(C(F)(F)F)c1
3,9.6 µM,O=S(=O)(NCCCNCc1ccc(Cl)c(C(F)(F)F)c1)c1cc(C(F)(F)F)cc(C(F)(F)F)c1
4,3.8 µM,COc1cccc(CNCCCNS(=O)(=O)c2cc(C(F)(F)F)cc(C(F)(F)F)c2)c1
5,4.6 µM,COc1ccccc1CNCCCNS(=O)(=O)c1cc(C(F)(F)F)cc(C(F)(F)F)c1

# Tested on: BXPC-3
# Assay: Growth inhibition of human BXPC-3 cells incubated for 72 hrs by MTT assay
# Assay type: functional
row,Compound,GI50
1,CN(CCCNS(=O)(=O)c1cc(C(F)(F)F)cc(C(F)(F)F)c1)Cc1ccccc1,39 µM
2,O=S(=O)(NCCCCNCc1ccc(Br)cc1)c1cc(C(F)(F)F)cc(C(F)(F)F)c1,1.7 µM
3,O=S(=O)(NCCCNCc1ccc(C(F)(F)F)cc1)c1cc(C(F)(F)F)cc(C(F)(F)F)c1,1.7 µM

# Further lines, results first:
row,GI50,Compound
1,13 µM,O=S(=O)(NCCCNCc1ccccc1)c1cc(C(F)(F)F)cc(C(F)(F)F)c1
2,11 µM,O=S(=O)(NCCCNCc1ccccc1Cl)c1cc(C(F)(F)F)cc(C(F)(F)F)c1
3,7.8 µM,O=S(=O)(NCCCNCc1ccc(Cl)c(C(F)(F)F)c1)c1cc(C(F)(F)F)cc(C(F)(F)F)c1
4,1.7 µM,COc1cccc(CNCCCNS(=O)(=O)c2cc(C(F)(F)F)cc(C(F)(F)F)c2)c1
5,1.7 µM,COc1ccccc1CNCCCNS(=O)(=O)c1cc(C(F)(F)F)cc(C(F)(F)F)c1

# Tested on: Capan-2
# Assay: Growth inhibition of human Capan-2 cells incubated for 72 hrs by MTT assay
# Assay type: functional
row,Compound,GI50
1,O=S(=O)(NCCCNCc1ccccc1)c1cc(C(F)(F)F)cc(C(F)(F)F)c1,14 µM
2,COc1cccc(CNCCCNS(=O)(=O)c2cc(C(F)(F)F)cc(C(F)(F)F)c2)c1,6.4 µM
3,CN(CCCNS(=O)(=O)c1cc(C(F)(F)F)cc(C(F)(F)F)c1)Cc1ccccc1,46 µM
4,O=S(=O)(NCCCNCc1ccccc1Cl)c1cc(C(F)(F)F)cc(C(F)(F)F)c1,13 µM
5,O=S(=O)(NCCCCNCc1ccc(Br)cc1)c1cc(C(F)(F)F)cc(C(F)(F)F)c1,1.9 µM
6,O=S(=O)(NCCCNCc1ccc(Cl)c(C(F)(F)F)c1)c1cc(C(F)(F)F)cc(C(F)(F)F)c1,9.1 µM
7,O=S(=O)(NCCCNCc1ccc(C(F)(F)F)cc1)c1cc(C(F)(F)F)cc(C(F)(F)F)c1,2 µM
8,COc1ccccc1CNCCCNS(=O)(=O)c1cc(C(F)(F)F)cc(C(F)(F)F)c1,6 µM

# Tested on: HPAC
# Assay: Growth inhibition of human HPAC cells incubated for 72 hrs by MTT assay
# Assay type: functional
row,Compound,GI50
1,O=S(=O)(NCCCNCc1ccccc1)c1cc(C(F)(F)F)cc(C(F)(F)F)c1,3.2 µM
2,COc1cccc(CNCCCNS(=O)(=O)c2cc(C(F)(F)F)cc(C(F)(F)F)c2)c1,2.4 µM
3,CN(CCCNS(=O)(=O)c1cc(C(F)(F)F)cc(C(F)(F)F)c1)Cc1ccccc1,30 µM
4,O=S(=O)(NCCCNCc1ccccc1Cl)c1cc(C(F)(F)F)cc(C(F)(F)F)c1,10 µM
5,O=S(=O)(NCCCCNCc1ccc(Br)cc1)c1cc(C(F)(F)F)cc(C(F)(F)F)c1,2 µM
6,O=S(=O)(NCCCNCc1ccc(Cl)c(C(F)(F)F)c1)c1cc(C(F)(F)F)cc(C(F)(F)F)c1,3 µM
7,O=S(=O)(NCCCNCc1ccc(C(F)(F)F)cc1)c1cc(C(F)(F)F)cc(C(F)(F)F)c1,2.7 µM
8,COc1ccccc1CNCCCNS(=O)(=O)c1cc(C(F)(F)F)cc(C(F)(F)F)c1,2.4 µM

# Tested on: PANC-1
# Assay: Growth inhibition of human PANC-1 cells incubated for 72 hrs by MTT assay
# Assay type: functional
row,Compound,GI50
1,CN(CCCNS(=O)(=O)c1cc(C(F)(F)F)cc(C(F)(F)F)c1)Cc1ccccc1,> 50 µM
2,O=S(=O)(NCCCCNCc1ccc(Br)cc1)c1cc(C(F)(F)F)cc(C(F)(F)F)c1,2.2 µM
3,O=S(=O)(NCCCNCc1ccc(C(F)(F)F)cc1)c1cc(C(F)(F)F)cc(C(F)(F)F)c1,3.2 µM

# Next, values leading:
row,GI50,Compound
1,16 µM,O=S(=O)(NCCCNCc1ccccc1)c1cc(C(F)(F)F)cc(C(F)(F)F)c1
2,15 µM,O=S(=O)(NCCCNCc1ccccc1Cl)c1cc(C(F)(F)F)cc(C(F)(F)F)c1
3,10 µM,O=S(=O)(NCCCNCc1ccc(Cl)c(C(F)(F)F)c1)c1cc(C(F)(F)F)cc(C(F)(F)F)c1
4,10 µM,COc1cccc(CNCCCNS(=O)(=O)c2cc(C(F)(F)F)cc(C(F)(F)F)c2)c1
5,12 µM,COc1ccccc1CNCCCNS(=O)(=O)c1cc(C(F)(F)F)cc(C(F)(F)F)c1
